# Test results as given in patent US20100016338A1, “5-[(3,3,3-Trifluoro-2-hydroxy-1-arylpropyl)amino]-1-arylquinolin-2-ones, a Process for their Production and their Use as Anti-inflammatory Agents” (BAYER SCHERING PHARMA AKTIENGESELLSCHAFT, priority 2008, published 2010).
# Assays:
# [1] = target: T1, glucocorticoid receptor (GR) (Homo sapiens, UniProt P04150); test: binding to the glucocorticoid receptor (recombinant receptor, cytosol of baculovirus-infected Sf9 cells)
# T1 construct: made in house; host or cells: Sf9 insect cells infected with recombinant baculovirus; cytosol preparation
# T1 sequence (P04150 1-777): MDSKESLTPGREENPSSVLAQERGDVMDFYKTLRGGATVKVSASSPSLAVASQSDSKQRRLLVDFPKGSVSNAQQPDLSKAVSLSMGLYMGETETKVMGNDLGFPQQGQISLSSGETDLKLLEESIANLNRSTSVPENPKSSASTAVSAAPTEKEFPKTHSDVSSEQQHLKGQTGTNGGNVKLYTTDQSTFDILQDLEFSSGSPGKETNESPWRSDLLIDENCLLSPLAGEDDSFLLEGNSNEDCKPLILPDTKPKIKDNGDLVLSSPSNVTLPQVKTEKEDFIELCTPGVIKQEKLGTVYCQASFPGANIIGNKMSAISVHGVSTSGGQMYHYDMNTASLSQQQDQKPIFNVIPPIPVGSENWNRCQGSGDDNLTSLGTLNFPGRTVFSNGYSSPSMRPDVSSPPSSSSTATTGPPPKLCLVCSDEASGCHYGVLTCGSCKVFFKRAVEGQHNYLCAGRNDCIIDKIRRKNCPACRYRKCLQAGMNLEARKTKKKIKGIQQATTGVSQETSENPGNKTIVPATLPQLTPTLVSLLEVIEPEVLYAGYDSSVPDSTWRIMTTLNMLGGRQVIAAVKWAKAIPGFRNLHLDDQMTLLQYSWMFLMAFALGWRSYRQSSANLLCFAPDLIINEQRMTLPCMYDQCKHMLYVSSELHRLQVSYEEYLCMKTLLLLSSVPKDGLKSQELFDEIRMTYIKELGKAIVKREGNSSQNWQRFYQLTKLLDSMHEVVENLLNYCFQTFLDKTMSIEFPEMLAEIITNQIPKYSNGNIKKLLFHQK
# Description: The binding of the substances to the glucocorticoid receptor (GR) and other steroid hormone receptors (mineral corticoid receptor (MR), progesterone receptor (PR) and androgen receptor (AR)) is examined with the aid of recombinantly produced receptors. Cytosol preparations of Sf9 cells, which had been infected with recombinant baculoviruses, which code for the GR, are used for the binding studies.
# [2] = system: cytokine IL-8 secretion, human monocyte cell line THP-1; test: inhibition of LPS-triggered IL-8 secretion in THP-1 cells (ELISA); format: cell-based; details: in comparison with dexamethasone as reference
# Procedure: The concentration of the cytokines was determined in the supernatant by means of commercially available ELISA kits.
compound,measurement,setting,value
"COCC(O)(C(Nc1cc(F)cc2c1ccc(=O)n2-c1ccc(F)nc1)c1ccc(OC)c(F)c1Cl)C(F)(F)F (centres unmarked) [Example 2, 5-{[1-(2-Chloro-3-fluoro-4-methoxyphenyl)-3,3,3-trifluoro-2-hydroxy-2-(methoxymethyl)propyl]amino}-7-fluoro-1-(6-fluoropyridin-3-yl)-1H quinolin-2-one]",IC50,[1],6.3 nM
same,efficacy of IL-8 inhibition,[2],107%
